Measurements: patent US6344203B1, “Mimicking peptides in cancer therapy” (The Austin Research Institute, priority 1995, dated 2002)
Like-named read-outs stand apart in the source and are kept apart here. No end group written: not given here.

Tests used:
IB4 lectin [1] = molecular target: T1, IB4 lectin (Griffonia simplicifolia, UniProt Q8W1R6); assay: Elisa: inhibition of IB4 lectin binding to Galα(1,3)Gal-BSA; details: for Inhibition of binding of IB4 to Galα(1,3)Gal-BSA: peptide concentration 5 mM (FIG. 8a)
T1 sequence (Q8W1R6 1-247): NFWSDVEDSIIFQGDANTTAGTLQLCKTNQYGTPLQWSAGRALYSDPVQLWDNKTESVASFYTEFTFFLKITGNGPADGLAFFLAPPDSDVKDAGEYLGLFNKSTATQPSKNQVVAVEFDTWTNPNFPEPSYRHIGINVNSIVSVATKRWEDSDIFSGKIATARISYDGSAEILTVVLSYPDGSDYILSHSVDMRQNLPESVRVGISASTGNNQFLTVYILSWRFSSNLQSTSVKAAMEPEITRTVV
Method: (§1) 50 μl of either purified anti-Galα(1,3)Ga IgG or biotinylated IB4 lectin was added to the wells, incubated for 45 minutes at 22° C., washed with PBS-0.05% Tween 20, and 50 μl of the relevant IIRP conjugate added and incubated for a further 45 minutes before washing and the addition of 50 μl of substrate (2,2′ Azino-di-B-ethylbenzthiozoline (Zymed, San Francisco, Calif.)) and reading the OD405.
(§2) An Elisa was established to calculate the relative “affinity” of the Gal pep 1 (SEQ ID No. 1) for the IB4 lectin and for human anti-Galα(1,3)Gal antibodies, and to compare these with the affinities for α-galactosyl sugars.
(§3) Peptides or carbohydrates were examined cytofluorographically for their ability to inhibit antibody/lectin binding to the cell surface using a FACSCAN flow cytometer (Becton Dickinson, USA)[20]: 25 μl of inhibitor was mixed with 25 μl of antibody of lectin and incubated at 22° C. for 3 hours (peptides) or at 4° C. for 16 hours (carbohydrates)[14], prior to addition of appropriate targets. An Elisa assay was used to calculate the relative affinities of the sugars or the peptides for both IB4 lectin and antibodies, and were defined as the molar concentration of inhibitor giving 50% inhibition of the maximal binding of lectin or antibody.

IB4 lectin [2] = molecular target: T1, IB4 lectin; assay: Cytofluorographic inhibition of IB4 lectin binding to PIEC cells; assay type: cell-based
Method: FIGS. 3(A-C). […] (A); Staining of PIEC cells with IB4 lectin (1 μg/ml). (B) Staining of PIEC cells with NHS (final dilution of 1/50) and anti-human Ig. (C) Staining of PBL with IB4 lectin (μg/ml). Peptides were used at 5 mM (A and C) or at 20 mM (B). In each panel profile “a” represents binding in the presence of Gal pep 1 (SEQ ID No. 1), and profile “b” the binding in the presence of CD48 pep 1 (SEQ ID No. 11).
FIGS. 6(A-B). […] Varying concentrations of peptides (shown in mM on horizontal axis) were explained for ability to inhibit the binding of IB4 lectin (1 μg/ml) to tie PIEC cells using cytofluorographic analysis. (a) Gal pep 1 (SEQ ID No. 1) (□), Muc pep 1 (SEQ ID No. 15) (∘).
FIG. 7. […] All peptides used at 5 mM, using cytofluorograhic analysis. Inhibition calculated relative to no peptide control.
(§4) The binding of lectin or antibody to the surface of pig cells was detected by hemagglutination, cytotoxicity or flow cytometry using the FACSCAN flow cytometer (Becton Dickinson, Mountain View, Calif.).
as §3

[3] = molecular target: human anti-Galα(1,3)Gal IgG antibodies; assay: Elisa: inhibition of anti-Galα(1,3)Gal IgG binding to Galα(1,3)Gal-BSA; details: for Inhibition of binding of anti-Galα(1,3)Gal IgG to Galα(1,3)Gal-BSA: peptides at 5 mM (FIG. 8b)
Method: as §1, §2, §3

PIEC cells = assay: Inhibition of cytotoxicity of NHS and complement on PIEC; assay type: cell-based, pig; details: peptide 10 mM to 2.5 mM, NHS 1/25
Source text: FIG. 4. Inhibition of cytotoxicity due to natural antibody and complement by Gal pep 1 (SEQ ID No. 1). Varying concentrations of Gal pep 1 (∘) or CD48 pep 1 (♦) (shown in mM on horizontal axis) were examined in a cytotoxicity assay using NHS (final dilution of 1/25) and PEEC cells as targets.
as §4
Human cytotoxic antibodies directly damage pig endothelial cells in a pig-to-human xenograft, therefore the ability of Gal pep 1 (SEQ ID No. 1) to inhibit the cytotoxicity of human antibodies on PIEC in vitro was tested; Gal pep 1 inhibited the cytotoxicity of NHS (10 mM to 2.5 mM), whereas CD48 pep 1 (SEQ ID No. 11) had no effect (FIG. 4).

IB4 lectin [4] = molecular target: T1, IB4 lectin; assay: biochemical
[5] = Table 3, anti-Galα(1,3)Gal antibody (IgG) 87 μgs/ml, read-out: I50 Anti-Galα(1,3)Gal
[6] = Elisa, varying concentrations of inhibitor

| Compound | Inhibition of binding of IB4 to Galα(1,3)Gal-BSA (IB4 lectin [1]; Elisa) | Inhibition of IB4 lectin binding to PIEC cells (IB4 lectin [2]; peptides at 5 mM (FIG. 7)) | Inhibition of binding of anti-Galα(1,3)Gal IgG to Galα(1,3)Gal-BSA ([3]; Elisa) | further results |
| --- | --- | --- | --- | --- |
| RSSVPSSTEKNAVSMTSSVL [Muc pep 7, human Muc1 NH2 to VNTR] | no inhibition | did not | – | – |
| WEADLHWS [Scram pep 1] | – | – | – | IC50 [3, 5]: > 20000 µM |
| TGFNQYKTEAASRVNL [Muc pep 8, human Muc1 COOH to VNTR] | – | inhibited | – | – |
| DAHWESWL [Gal pep 1] | – | – | – | IC50 (IB4 lectin [1]): 300 µM; Inhibition of cytotoxicity of NHS on PIEC (PIEC cells): inhibited; IC50 (IB4 lectin [4]): 5000 µM |
| APDTRPAPGSTAPPAH [Muc pep 4] | complete inhibition | – | partial inhibition | Inhibition of IB4 lectin binding to PIEC cells (IB4 lectin [2]; varying peptide concentrations (FIG. 6b)): partial inhibition; IC50 [3, 5]: 5000 µM |
| RYHHYSSNFSIPKANHSHSGDYYCKGSL [FcR pep 1, control peptide, MURINE FCRIIβ2] | – | – | had no effect | – |
| CPAHGVTSAPDTRPAPGSTAP [Muc pep 1] | complete inhibition | – | inhibited | Inhibition of IB4 lectin binding to PIEC cells (IB4 lectin [2]; to a peptide concentration of 0.125 mM (FIG. 6a)): almost complete inhibition; IC50 [3, 5]: 2500 µM |
| OCC1OC(OCC2OC(O)C(O)C(O)C2O)C(O)C(O)C1O (centres unmarked) [Melibiose, Galα(1,6)Glc] | – | – | – | Inhibition of IB4 lectin binding to Galα(1,3)Gal-BSA (in words) (IB4 lectin [1]; [6]): inhibited; IC50 (IB4 lectin [1]; read-out: I50 IB4): 300 µM; Inhibition of anti-Galα(1,3)Gal IgG binding to Galα(1,3)Gal-BSA (in words) [3, 6]: inhibited; IC50 ([3]; Table 1, anti-Galα(1,3)Gal IgG 87 μg/ml, concentration giving 50% inhibition of binding, read-out: I50 anti-Galα(1,3)Gal IgG): 125 to 300 µM |
| CC(C)[C@H](NC(=O)[C@H](CO)NC(=O)[C@H](CO)NC(=O)[C@H](CCCNC(=N)N)NC(=O)[C@H](CCC(N)=O)NC(=O)[C@@H](NC(=O)[C@H](C)NC(=O)[C@H](CO)NC(=O)[C@@H](NC(=O)[C@H](CCC(=O)O)NC(=O)[C@H](CCCCN)NC(=O)[C@H](CCC(=O)O)NC(=O)CNC(=O)CNC(=O)[C@@H]1CCCN1C(=O)[C@@H](NC(=O)[C@H](CO)NC(=O)[C@H](CO)NC(=O)[C@H](C)NC(=O)[C@H](Cc1c[nH]cn1)NC(=O)CNC(=O)[C@H](CO)NC(=O)CNC(=O)[C@@H](N)[C@@H](C)O)[C@@H](C)O)[C@@H](C)O)[C@@H](C)O)C(=O)N1CCC[C@H]1C(=O)O [Muc pep 6] | complete inhibition | partial inhibition | – | – |
| LSGVRFSAARTAHPLPQKH [TNF pep 1, control peptide, MURINE TNFβ] | did not inhibit | – | – | – |
| CHSTPSFTSSITTTETTS [Muc pep 10, human Muc3 VNTR] | – | inhibited | – | – |
| TECKHKKGKVVSGKVLSY [CD4 pep 1, control peptide, murine CD4] | did not inhibit | – | had no effect | – |
